Data from PubChem BioAssay AID2060889 (Molecular Pharmacology Branch, DTP, NCI, 2025).

System: LG0567-F671-PDC complex spheroids viability
Assay: Anticancer human tumor LG0567-F671-PDC patient-derived lung adenocarcinoma cell line growth inhibition [RAS]
Settings: for IC50: curve of first compound; for viability, T/C: stronger effect = lower value
Method in brief: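 Agents were tested in combination matrices in half-log decrements from a top concentration at or near clinical Cmax (10 microM if undetermined). Targets were multi-cell spheroids of tumour lines plus HUVEC and MSC stromal cells.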

[1] = second compound 0.0316 µM, first compound 0.0316 µM
[2] = second compound 0.0316 µM, first compound 0.1 µM
[3] = second compound 0.0316 µM, first compound 0.316 µM
[4] = second compound 0.0316 µM, first compound 1 µM
[5] = second compound 0.1 µM, first compound 0.0316 µM
[6] = second compound 0.1 µM, first compound 0.1 µM
[7] = second compound 0.1 µM, first compound 0.316 µM
[8] = second compound 0.1 µM, first compound 1 µM
[9] = second compound 0.316 µM, first compound 0.0316 µM
[10] = second compound 0.316 µM, first compound 0.1 µM
[11] = second compound 0.316 µM, first compound 0.316 µM
[12] = second compound 0.316 µM, first compound 1 µM
[13] = second compound 1 µM, first compound 0.0316 µM
[14] = second compound 1 µM, first compound 0.1 µM
[15] = second compound 1 µM, first compound 0.316 µM
[16] = second compound 1 µM, first compound 1 µM
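Further: spheroids exposed to compound for seven days before readout.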
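Wherever IC50 is given: luminescence signal used as a proxy for viable cells.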

Which results are given for `C[C@@H](NC(=O)c1ncnc(N)c1Cl)c1ncc(C(=O)Nc2cc(C(F)(F)F)c(Cl)cn2)s1` + CCn1c(-c2cccnc2C(C)OC)c2c3cc(ccc31)N1CCOC(CC(NC(=O)C(C(C)C)N(C)C(=O)C3(F)CCN(C(=O)C#CC(C)(C)N(C)C)CC3)C(=O)N3CCCC(N3)C(=O)OCC(C)(C)C2)C1?
IC50 (second compound 0.000949 µM): < 31.6 nM; IC50 (second compound 0.003 µM): < 31.6 nM; IC50 (second compound 0.00949 µM): < 31.6 nM; IC50 (second compound 0.03 µM): < 31.6 nM; IC50 (second compound 0.0949 µM): < 31.6 nM; IC50 (second compound 0.3 µM): < 31.6 nM; viability, T/C (second compound 0.000949 µM, first compound 0.0316 µM): 17.3%; viability, T/C (second compound 0.000949 µM, first compound 0.1 µM): 19.9%; viability, T/C (second compound 0.000949 µM, first compound 0.316 µM): 20.6%; viability, T/C (second compound 0.000949 µM, first compound 1 µM): 24.5%; viability, T/C (second compound 0.000949 µM, first compound 3.16 µM): 23.5%; viability, T/C (second compound 0.000949 µM, first compound 10 µM): 23.9%; viability, T/C (second compound 0.003 µM, first compound 0.0316 µM): 17.1%; viability, T/C (second compound 0.003 µM, first compound 0.1 µM): 17.9%; viability, T/C (second compound 0.003 µM, first compound 0.316 µM): 21.1%; viability, T/C (second compound 0.003 µM, first compound 1 µM): 21%; viability, T/C (second compound 0.003 µM, first compound 3.16 µM): 25.6%; viability, T/C (second compound 0.003 µM, first compound 10 µM): 23.6%; viability, T/C (second compound 0.00949 µM, first compound 0.0316 µM): 20.9%; viability, T/C (second compound 0.00949 µM, first compound 0.1 µM): 18.6%; viability, T/C (second compound 0.00949 µM, first compound 0.316 µM): 19.2%; viability, T/C (second compound 0.00949 µM, first compound 1 µM): 22.4%; viability, T/C (second compound 0.00949 µM, first compound 3.16 µM): 22.4%; viability, T/C (second compound 0.00949 µM, first compound 10 µM): 24%; viability, T/C (second compound 0.03 µM, first compound 0.0316 µM): 16.7%; viability, T/C (second compound 0.03 µM, first compound 0.1 µM): 17.1%; viability, T/C (second compound 0.03 µM, first compound 0.316 µM): 22.9%; viability, T/C (second compound 0.03 µM, first compound 1 µM): 20.3%; viability, T/C (second compound 0.03 µM, first compound 3.16 µM): 21.6%; viability, T/C (second compound 0.03 µM, first compound 10 µM): 22.2%; viability, T/C (second compound 0.0949 µM, first compound 0.0316 µM): 14.4%; viability, T/C (second compound 0.0949 µM, first compound 0.1 µM): 15.5%; viability, T/C (second compound 0.0949 µM, first compound 0.316 µM): 17.5%; viability, T/C (second compound 0.0949 µM, first compound 1 µM): 19.6%; viability, T/C (second compound 0.0949 µM, first compound 3.16 µM): 19.8%; viability, T/C (second compound 0.0949 µM, first compound 10 µM): 21.8%; viability, T/C (second compound 0.3 µM, first compound 0.0316 µM): 13%; viability, T/C (second compound 0.3 µM, first compound 0.1 µM): 14.8%; viability, T/C (second compound 0.3 µM, first compound 0.316 µM): 14.2%; viability, T/C (second compound 0.3 µM, first compound 1 µM): 17.2%; viability, T/C (second compound 0.3 µM, first compound 3.16 µM): 19.5%; viability, T/C (second compound 0.3 µM, first compound 10 µM): 19.1%

Which IC50 (second compound 0.00316 µM) does the source give for `CC1(O)CCCC1n1c(=O)c(C(F)F)cc2cnc(NC3CCN(S(C)(=O)=O)CC3)nc21` (stereo unspecified) + C=CC(=O)N1CCN(c2nc(OCC3CCCN3C)nc3c(F)c(-c4nc(N)cc(C)c4C(F)(F)F)c(Cl)cc23)C(C)C1 here?
The IC50 was less than 31.6 nM.

What about the IC50 (second compound 0.01 µM) of the same molecule?
Its IC50 is less than 31.6 nM.

What about the IC50 (second compound 0.0316 µM) of the same molecule?
The IC50 was less than 31.6 nM.

What about the IC50 (second compound 0.1 µM) of the same molecule?
Its IC50 is less than 31.6 nM.

And the IC50 (second compound 0.316 µM)?
Its IC50 is less than 31.6 nM.

What about the IC50 (second compound 1 µM) of the same molecule?
The IC50 was less than 31.6 nM.

What about the viability, T/C (second compound 0.00316 µM, first compound 0.0316 µM) of the same molecule?
The viability, T/C was 20.1%.

And the viability, T/C (second compound 0.00316 µM, first compound 0.1 µM)?
Its viability, T/C is 16.5%.

What about the viability, T/C (second compound 0.00316 µM, first compound 0.316 µM) of the same molecule?
The viability, T/C was 20.5%.

What about the viability, T/C (second compound 0.00316 µM, first compound 1 µM) of the same molecule?
Its viability, T/C is 23.8%.

What about the viability, T/C (second compound 0.00316 µM, first compound 3.16 µM) of the same molecule?
The viability, T/C was 20.7%.

What about the viability, T/C (second compound 0.00316 µM, first compound 10 µM) of the same molecule?
Its viability, T/C is 14%.

And the viability, T/C (second compound 0.01 µM, first compound 0.0316 µM)?
The viability, T/C was 16.5%.

And the viability, T/C (second compound 0.01 µM, first compound 0.1 µM)?
The viability, T/C was 15%.

And the viability, T/C (second compound 0.01 µM, first compound 0.316 µM)?
The viability, T/C was 16.2%.

And the viability, T/C (second compound 0.01 µM, first compound 1 µM)?
The viability, T/C was 19.1%.

And the viability, T/C (second compound 0.01 µM, first compound 3.16 µM)?
Its viability, T/C is 20.6%.

And the viability, T/C (second compound 0.01 µM, first compound 10 µM)?
The viability, T/C was 15.1%.

What about the viability, T/C [1] of the same molecule?
The viability, T/C was 13.8%.

What about the viability, T/C [2] of the same molecule?
Its viability, T/C is 12.9%.

And the viability, T/C [3]?
Its viability, T/C is 17.8%.

What about the viability, T/C [4] of the same molecule?
Its viability, T/C is 18.3%.

What about the viability, T/C (second compound 0.0316 µM, first compound 3.16 µM) of the same molecule?
Its viability, T/C is 17.6%.

What about the viability, T/C (second compound 0.0316 µM, first compound 10 µM) of the same molecule?
The viability, T/C was 13.4%.

What about the viability, T/C [5] of the same molecule?
The viability, T/C was 12.7%.

What about the viability, T/C [6] of the same molecule?
Its viability, T/C is 13.8%.

What about the viability, T/C [7] of the same molecule?
Its viability, T/C is 15%.

What about the viability, T/C [8] of the same molecule?
The viability, T/C was 17.8%.

What about the viability, T/C (second compound 0.1 µM, first compound 3.16 µM) of the same molecule?
The viability, T/C was 17.4%.

And the viability, T/C (second compound 0.1 µM, first compound 10 µM)?
Its viability, T/C is 13.3%.

And the viability, T/C [9]?
The viability, T/C was 14.5%.

What about the viability, T/C [10] of the same molecule?
Its viability, T/C is 15%.

What about the viability, T/C [11] of the same molecule?
The viability, T/C was 16.6%.

And the viability, T/C [12]?
The viability, T/C was 17.1%.

What about the viability, T/C (second compound 0.316 µM, first compound 3.16 µM) of the same molecule?
Its viability, T/C is 15.8%.

And the viability, T/C (second compound 0.316 µM, first compound 10 µM)?
The viability, T/C was 13.1%.

And the viability, T/C [13]?
The viability, T/C was 16.2%.

And the viability, T/C [14]?
Its viability, T/C is 15.3%.

And the viability, T/C [15]?
Its viability, T/C is 17.7%.

And the viability, T/C [16]?
Its viability, T/C is 19.8%.

And the viability, T/C (second compound 1 µM, first compound 3.16 µM)?
Its viability, T/C is 19.6%.

And the viability, T/C (second compound 1 µM, first compound 10 µM)?
The viability, T/C was 12.4%.

Which results are given for `CCN1CCN(Cc2ccc(Nc3ncc(F)c(-c4cc(F)c5nc(C)n(C(C)C)c5c4)n3)nc2)CC1` + C#Cc1c(F)ccc2cc(O)cc(-c3ncc4c(N5CC6CCC(C5)N6)nc(OCC56CCCN5CC(F)C6)nc4c3F)c12?
IC50 (second compound 0.0316 µM): > 1000 nM; IC50 (second compound 0.1 µM): > 1000 nM; IC50 (second compound 0.316 µM): 13.1 nM; IC50 (second compound 1 µM): < 3.16 nM; IC50 (second compound 3.16 µM): < 3.16 nM; IC50 (second compound 10 µM): < 3.16 nM; viability, T/C (second compound 0.0316 µM, first compound 0.00316 µM): 83.8%; viability, T/C (second compound 0.0316 µM, first compound 0.01 µM): 77.1%; viability, T/C [1]: 72.8%; viability, T/C [2]: 71.8%; viability, T/C [3]: 61.1%; viability, T/C [4]: 50.3%; viability, T/C (second compound 0.1 µM, first compound 0.00316 µM): 75.9%; viability, T/C (second compound 0.1 µM, first compound 0.01 µM): 75%; viability, T/C [5]: 62.2%; viability, T/C [6]: 59.1%; viability, T/C [7]: 57.4%; viability, T/C [8]: 50.7%; viability, T/C (second compound 0.316 µM, first compound 0.00316 µM): 54.4%; viability, T/C (second compound 0.316 µM, first compound 0.01 µM): 52.6%; viability, T/C [9]: 46.8%; viability, T/C [10]: 44.4%; viability, T/C [11]: 36%; viability, T/C [12]: 39.1%; viability, T/C (second compound 1 µM, first compound 0.00316 µM): 37.8%; viability, T/C (second compound 1 µM, first compound 0.01 µM): 34.5%; viability, T/C [13]: 30.9%; viability, T/C [14]: 27.1%; viability, T/C [15]: 28.4%; viability, T/C [16]: 27.3%; viability, T/C (second compound 3.16 µM, first compound 0.00316 µM): 20.7%; viability, T/C (second compound 3.16 µM, first compound 0.01 µM): 18.2%; viability, T/C (second compound 3.16 µM, first compound 0.0316 µM): 20%; viability, T/C (second compound 3.16 µM, first compound 0.1 µM): 17%; viability, T/C (second compound 3.16 µM, first compound 0.316 µM): 19.7%; viability, T/C (second compound 3.16 µM, first compound 1 µM): 18.2%; viability, T/C (second compound 10 µM, first compound 0.00316 µM): 11.4%; viability, T/C (second compound 10 µM, first compound 0.01 µM): 10.8%; viability, T/C (second compound 10 µM, first compound 0.0316 µM): 13.1%; viability, T/C (second compound 10 µM, first compound 0.1 µM): 10.7%; viability, T/C (second compound 10 µM, first compound 0.316 µM): 13.4%; viability, T/C (second compound 10 µM, first compound 1 µM): 16.4%

With `CC1(C)CCC(Nc2ncc(C(F)(F)F)c(-c3c[nH]c4c(P(C)(C)=O)c(C#N)ccc34)n2)CN1` (stereo unspecified) as the molecule, how does the viability, T/C (compound 0.003 µM) read?
Its viability, T/C is 61.7% [middle of 4 runs].

What about the viability, T/C (compound 0.00949 µM) of the same molecule?
Its viability, T/C is 58.9% [middle of 4 runs].

And the viability, T/C (compound 0.03 µM)?
Its viability, T/C is 58.4% [middle of 4 runs].

And the viability, T/C (compound 0.0949 µM)?
Its viability, T/C is 60.6% [middle of 4 runs].

What about the viability, T/C (compound 0.3 µM) of the same molecule?
Its viability, T/C is 58% [middle of 4 runs].
